According to PubChem BioAssay (NCI):
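Results reflect a 48-hour exposure of cells in 96-well plates to compound at five concentrations. GI50 marks 50% less growth. At the TGI there is no net growth.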 *1 amine or outer side, *2 acyl side, *3 side chain or, on linkers, in order; H or OH if unused. Where a SMILES comes first, the peptide text is derived from it. [ ]: non-standard residue; d: D form. ξ: configuration not given here. X21 = CC[C@@H](C)C(N[*:1])C(=O)[*:2]; ξR = N=C(N)NCCCC(N)C(=O)O; ξI = CCC(C)C(N)C(=O)O; ξL = CC(C)CC(N)C(=O)O; ξK = NCCCCC(N)C(=O)O; ξV = CC(C)C(N)C(=O)O; ξA = CC(N)C(=O)O

Experiments:
Assay in all cases: growth of human tumour cells (NCI), 48 h
786-0 renal = system: 786-0 renal
HOP-62 NSCLC = system: HOP-62 NSCLC
HOP-92 NSCLC = system: HOP-92 NSCLC
HS 578T breast = system: HS 578T breast
HT29 colon = system: HT29 colon
MDA-MB-231 breast = system: MDA-MB-231 breast
SN12C renal = system: SN12C renal
TK-10 renal = system: TK-10 renal
U251 CNS = system: U251 CNS
EKVX NSCLC = system: EKVX NSCLC

Row | Structure (SMILES) | GI50 (786-0 renal) [µM] | TGI (786-0 renal) [µM] | GI50 (HOP-62 NSCLC) [µM] | TGI (HOP-62 NSCLC) [µM] | GI50 (HOP-92 NSCLC) [nM] | TGI (HOP-92 NSCLC) [µM] | GI50 (HS 578T breast) [µM] | TGI (HS 578T breast) [µM] | GI50 (HT29 colon) [µM] | TGI (HT29 colon) [µM] | GI50 (MDA-MB-231 breast) [µM] | TGI (MDA-MB-231 breast) [µM] | GI50 (SN12C renal) [µM] | TGI (SN12C renal) [µM] | GI50 (TK-10 renal) [µM] | TGI (TK-10 renal) [µM] | GI50 (U251 CNS) [µM] | TGI (U251 CNS) [µM] | GI50 (EKVX NSCLC) [nM] | TGI (EKVX NSCLC) [µM]
1 | COc1ccc(-c2csc(NC(=O)c3cc(O)c(O)c(O)c3)n2)cc1 | 11 | > 33.3 | 8.92 | > 33.3 | 5240 | 26.2 | 19.3 | > 33.3 | 18.6 | > 33.3 | 5.18 | > 33.3 | 7.42 | > 33.3 | 6.36 | > 33.3 | 4.09 | > 33.3 |  | 
2 | CCOC(=O)Nc1nc2c(C)cccc2s1 | > 100 | > 100 | > 100 | > 100 | 13900 | 71.5 | 36.1 | > 100 | 46.8 | > 100 | 36.1 | > 100 | 44.7 | > 100 | 90.9 | > 100 | 77.5 | > 100 |  | 
3 | CCC(C)C1NC(=O)C(CC(C)C)NC(=O)C(C)NC(=O)C(C(C)C)NC(=O)C(CCCCN)NC(=O)C(CC(C)C)NC(=O)C(C(C)C)NC(=O)[C@H](C)NC(=O)C(C(C)CC)NC(=O)C(CCCN=C(N)N)NC(=O)C(CCCCN)NC(=O)C(CCCN=C(N)N)NC(=O)C(CCCCN)NC(=O)C([C@H](C)CC)NC(=O)C(CCCCN)NC1=O (stereo not given in full) (cyclo(A[ξV][ξL][ξK][ξV][ξA][ξL][ξI][ξK][X21][ξK][ξR][ξK][ξR][ξI])) | 1.62 | 3.17 | 1.7 | 4.18 | 1140 | 2.91 | 1.72 | 4.63 | 2.59 | 10.3 | 1.62 | 3.73 | 1.37 | 3.32 | 1.62 | 3.82 | 1.5 | 3.44 | 610 | 2.9
4 | COc1ccc(/C=C/NC=O)cc1 |  | > 100 |  | > 100 |  |  |  | > 100 |  | > 100 |  | > 100 |  | > 100 |  | > 100 |  | > 100 |  | > 100
5 | NC(CC1=CCC=CC1)C(=O)O (stereo not given) |  | > 100 |  | > 100 |  | > 100 |  | > 100 |  | > 100 |  | > 100 |  | > 100 |  | > 100 |  | > 100 |  | > 100
6 | O=C(Nc1ccccc1)Nc1cccc(Oc2nnc(Cl)c3ccccc23)c1 | 3.6 | 8.18 | 2.52 | 6.54 | 3090 | 11.3 | 2.12 | 10.4 | 5.26 | > 25 | 4.76 | 12.3 | 6.72 | > 25 | 6.08 | 14.9 | 2.14 | 5.2 | 2310 | 12.1
7 | Fc1ccc2[nH]cc(SSc3c[nH]c4ccc(F)cc34)c2c1 | 6.8 | 24.8 | 6.33 | 57.2 | 1950 | 7.92 | 4.22 | 31.1 | 5.46 | 23.9 | 4.17 | 26.8 |  |  | 10.1 | 24.6 | 3.82 | 28 | 3030 | 15.7
8 | COc1cc(/C=C2\C(=O)Nc3cccc(Cl)c32)cc(OC)c1OC | 41.8 | > 100 | 32.6 | > 100 | 23900 | 93.2 | > 100 | > 100 | > 100 | > 100 | 33.3 | > 100 | > 100 | > 100 | > 100 | > 100 | 41 | > 100 | > 100000 | > 100
9 | Cc1cc(N(CCCl)CCCl)ccc1/C=N/NC(=O)Cc1cc(=O)oc2cc(O)ccc12 |  | 59.7 |  | 39.7 |  | > 100 |  | 56.3 |  | 31.2 |  | 86.8 |  | 38.2 |  |  |  | 43.4 |  | 82.9
10 | CC(C)Nc1ncc2cc(Oc3ccc(F)cc3F)c(=O)n(C)c2n1 | > 25 | > 25 | > 25 | > 25 | 2890 | 21.6 | 11.6 | > 25 | > 25 | > 25 | 21 | > 25 | 21.4 | > 25 | 15.8 | > 25 | > 25 | > 25 |  | 
11 | CC1(C)CC(Nc2ccc(Nc3ccccc3)cc2)CC(C)(C)N1 |  | 49.2 |  | 77.3 |  | 33.9 |  | 48.8 |  | 50.7 |  | 32.4 |  | 80.6 |  | 48.5 |  | 40.1 |  | 81.4
12 | O=[N+]([O-])c1ccc2nc3ccccc3cc2c1 |  | 14 |  | 6.16 |  | 18.2 |  | 27.4 |  | 4.4 |  | 8.64 |  | 5.63 |  | 5.24 |  | 10.6 |  | 22.9
13 | C=C1C(=O)O[C@H]2[C@H]1CC/C(Cn1cc(-c3cc(C)c(C)cc3C)nn1)=C\CC[C@@]1(C)O[C@@H]21 | 1.5 | 3.18 | 1.77 | 3.97 | 436 | 1.68 | 1.94 | 6.2 | 0.502 | 1.91 | 1.11 | 2.62 | 1.49 | 3.41 | 1.46 | 2.83 | 1.53 | 2.91 | 1220 | 2.53
14 | Cc1c(N=Cc2ccc(N(CCC#N)CCC#N)cc2)c(=O)n(-c2ccccc2)n1C |  | 90.3 |  | 86.1 |  | 99 |  | > 100 |  | > 100 |  | > 100 |  | > 100 |  | 62.1 |  | > 100 |  | > 100
15 | CC(C)c1ccc(NC(=S)NC(=O)c2ccccc2)cc1 |  | 46.4 |  | > 100 |  | > 100 |  | > 100 |  | 32.4 |  | 57 |  | > 100 |  | 50.1 |  | 80.1 |  | > 100
